Earlier results in patent US20120022018A1, “ANTI-VIRAL PROPERTIES OF ALOE VERA AND ACQUIRED IMMUNE DEFICIENCY SYNDROME (AIDS) TREATMENT” (NORTH TEXAS MEDICAL ASSOCIATES, priority 2010, published 2012).

Legend:
[1] = test system: HIV-1 envelope glycoprotein; conditions: HIV-1 infected monocytes cultures; instead of usual GP-160, GP-120, GP-41 bands
[2] = test system: New Castle and paramyxoviruses; conditions: New Castle and paramyxoviruses in culture; altered envelope glycoproteins
[3] = test system: monocytic/macrophagic (M/M) cell counts; conditions: in vivo

Substance: Acemannan
- effect on HIV-1 envelope glycoprotein [1]: induced the production of multiple molecular weights of HIV-1 envelope glycoprotein
- effect on infectivity of virions [2]: rendered the virions incapable of infecting susceptible target cell lines as well as animals
- monocytic/macrophagic (M/M) cell counts [3]: increase
